Laboratory results from the supplement of paper PMC5908809.

What was measured:
[1] = test system: normal NK cells expanded with K562-aAPC; assay: percent inhibition of viability; higher = more inhibition; conditions: 72 h, IL-2 2.5 ng/mL
Procedure: (§1)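 Drug sensitivity and resistance testing on K562-aAPC-expanded normal NK cells: 5 concentrations (10-fold steps over a 10,000-fold range), 72 h at 37 °C, viability by CellTiter-Glo normalised to DMSO and benzethonium chloride controls; DSS from the fitted curve.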

DERL-7 (IL-2 2.5 ng/mL) [2] = assay: as above; conditions: 72 h
IMC-1 (IL-2 20 ng/mL) [3] = assay: as above; conditions: 72 h
KAI3 (IL-2 2.5 ng/mL) [4] = assay: as above; conditions: 72 h
KHYG-1 (IL-2 2.5 ng/mL) [5] = assay: as above; conditions: 72 h
NK-92 (IL-2 2.5 ng/mL) [6] = assay: as above; conditions: 72 h
NK-YS (IL-2 2.5 ng/mL) [7] = assay: as above; conditions: 72 h
NKL (IL-2 2.5 ng/mL) [8] = assay: as above; conditions: 72 h
SNK-6 (IL-2 2.5 ng/mL) [9] = assay: as above; conditions: 72 h
YT (IL-2 2.5 ng/mL) [10] = assay: as above; conditions: 72 h
[11] = test system: normal primary NK cells, pool 1 (3 donors) (IL-2 2.5 ng/mL); assay: as above; conditions: 72 h
[12] = test system: normal primary NK cells, pool 1 (3 donors), resting (IL-2 0 ng/mL); assay: as above; conditions: 72 h
[13] = test system: normal primary NK cells, pool 2 (3 donors) (IL-2 2.5 ng/mL); assay: as above; conditions: 72 h
[14] = test system: normal primary NK cells, pool 3 (3 donors) (IL-2 2.5 ng/mL); assay: as above; conditions: 72 h
[15] = test system: normal NK cells expanded with K562-aAPC; assay: drug sensitivity score (DSS) (DSS units); higher = more sensitive; extreme values may be limits of the assay; conditions: 72 h; IL-2 2.5 ng/mL
Procedure: as §1

DERL-7 (IL-2 2.5 ng/mL) [16] = assay: as above; conditions: 72 h
IMC-1 (IL-2 20 ng/mL) [17] = assay: as above; conditions: 72 h
KAI3 (IL-2 2.5 ng/mL) [18] = assay: as above; conditions: 72 h
KHYG-1 (IL-2 2.5 ng/mL) [19] = assay: as above; conditions: 72 h
NK-92 (IL-2 2.5 ng/mL) [20] = assay: as above; conditions: 72 h
NK-YS (IL-2 2.5 ng/mL) [21] = assay: as above; conditions: 72 h
NKL (IL-2 2.5 ng/mL) [22] = assay: as above; conditions: 72 h
SNK-6 (IL-2 2.5 ng/mL) [23] = assay: as above; conditions: 72 h
YT (IL-2 2.5 ng/mL) [24] = assay: as above; conditions: 72 h
[25] = test system: normal primary NK cells, pool 1 (3 donors) (IL-2 2.5 ng/mL); assay: as above; conditions: 72 h
[26] = test system: normal primary NK cells, pool 1 (3 donors), resting (IL-2 0 ng/mL); assay: as above; conditions: 72 h
[27] = test system: normal primary NK cells, pool 2 (3 donors) (IL-2 2.5 ng/mL); assay: as above; conditions: 72 h
[28] = test system: normal primary NK cells, pool 3 (3 donors) (IL-2 2.5 ng/mL); assay: as above; conditions: 72 h

CN(C)C1CCN(C(=O)c2ccc(NC(=O)Nc3ccc(-c4nc(N5CCOCC5)nc(N5CCOCC5)n4)cc3)cc2)CC1 [Gedatolisib] (max concentration tested 1000 nM)
percent inhibition of viability [%]
Conditions | 0.1 nM | 1 nM | 10 nM | 100 nM | 1000 nM
DERL-7 (IL-2 2.5 ng/mL) [2] | -6.47 | 3.75 | 20.5 | 81.6 | 96.8
IMC-1 (IL-2 20 ng/mL) [3] | 1.19 | 4.03 | -1.18 | -2.3 | 34.8
KAI3 (IL-2 2.5 ng/mL) [4] | -4.82 | -2.02 | 7.1 | 34.4 | 65.2
KHYG-1 (IL-2 2.5 ng/mL) [5] | 3.45 | 0.68 | 6.16 | 4.39 | 40.9
NK-92 (IL-2 2.5 ng/mL) [6] | -8.45 | -9.3 | 7.7 | -10.2 | 15.7
NK-YS (IL-2 2.5 ng/mL) [7] | 1.81 | -3.05 | 18.4 | 56.5 | 75.3
NKL (IL-2 2.5 ng/mL) [8] | -11 | -10.7 | 19.5 | 58.6 | 62
SNK-6 (IL-2 2.5 ng/mL) [9] | 13 | 9.94 | 17.4 | 15.5 | 55.6
YT (IL-2 2.5 ng/mL) [10] | -1.35 | -2.24 | 7.23 | 19.8 | 61.7
[1] | -0.13 | 7.4 | 1.57 | 11 | 38
[11] | 4.43 | -5.19 | 5.53 | 2.83 | 24.4
[12] | 4.88 | -18.3 | 3.45 | -12.4 | 12.5
[13] | -16.6 | -2.18 | -0.9 | 7.29 | 33.2
[14] | -10.1 | -4.3 | -0.54 | 0.15 | 27.5

Conditions | drug sensitivity score
DERL-7 (IL-2 2.5 ng/mL) [16] | 17.5
IMC-1 (IL-2 20 ng/mL) [17] | 1.45
KAI3 (IL-2 2.5 ng/mL) [18] | 7.65
KHYG-1 (IL-2 2.5 ng/mL) [19] | 2.77
NK-92 (IL-2 2.5 ng/mL) [20] | 0.11
NK-YS (IL-2 2.5 ng/mL) [21] | 12.7
NKL (IL-2 2.5 ng/mL) [22] | 13.9
SNK-6 (IL-2 2.5 ng/mL) [23] | 6.43
YT (IL-2 2.5 ng/mL) [24] | 5.75
[15] | 3.49
[25] | 1.34
[26] | 0.01
[27] | 2.68
[28] | 1.15

CNC(=O)c1ccc(-c2cnc3ncc(Cc4ccc5ncccc5c4)n3n2)cc1F [NVP-INC280] (max concentration tested 1000 nM)
percent inhibition of viability [%]
Conditions | 0.1 nM | 1 nM | 10 nM | 100 nM | 1000 nM
DERL-7 (IL-2 2.5 ng/mL) [2] | -5.28 | 4.26 | -9.16 | -6.92 | -4.89
IMC-1 (IL-2 20 ng/mL) [3] | 0.35 | -0.99 | 7.3 | 10.2 | 14.7
KAI3 (IL-2 2.5 ng/mL) [4] | -3.13 | -7.87 | 2.81 | 8.6 | 10.3
KHYG-1 (IL-2 2.5 ng/mL) [5] | 0.53 | 0.71 | 6.28 | 8.45 | 7.71
NK-92 (IL-2 2.5 ng/mL) [6] | -4.47 | -11.1 | 1.26 | -6.37 | 7.6
NK-YS (IL-2 2.5 ng/mL) [7] | -3.18 | -2.55 | 2.09 | 4.91 | 7.49
NKL (IL-2 2.5 ng/mL) [8] | -14.8 | -12 | -3.62 | -0.32 | 1.94
SNK-6 (IL-2 2.5 ng/mL) [9] | 1.66 | -4.69 | 8.68 | 23.7 | 31.8
YT (IL-2 2.5 ng/mL) [10] | -0.04 | -0.12 | 2.87 | 3.88 | 14.8
[1] | 3.07 | -1.65 | 0.35 | 12.4 | 9.59
[11] | -3.26 | -0.85 | -0.05 | -8.05 | -1.86
[12] | -4.36 | 11.4 | -16.1 | -15.8 | -5.95
[13] | -5.16 | -9.82 | 0.45 | -1.98 | 7.71
[14] | -4.63 | -9.7 | -8.57 | -10.9 | -0.53

Conditions | drug sensitivity score
DERL-7 (IL-2 2.5 ng/mL) [16] | 0
IMC-1 (IL-2 20 ng/mL) [17] | 0.81
KAI3 (IL-2 2.5 ng/mL) [18] | 0.03
KHYG-1 (IL-2 2.5 ng/mL) [19] | 0
NK-92 (IL-2 2.5 ng/mL) [20] | 0
NK-YS (IL-2 2.5 ng/mL) [21] | 0
NKL (IL-2 2.5 ng/mL) [22] | 0
SNK-6 (IL-2 2.5 ng/mL) [23] | 4.62
YT (IL-2 2.5 ng/mL) [24] | 0.42
[15] | 0.67
[25] | 0
[26] | 0
[27] | 0
[28] | 0
